The text below walks through data of article PMC5814754, “Quantitative, Wide-Spectrum Kinase Profiling in Live Cells for Assessing the Effect of Cellular ATP on Target Engagement” (Cell Chemical Biology, 2018).

Experiment in all cases: Apparent affinity (EC50) of energy transfer probes by titration onto live HEK293 cells expressing kinase/Nluc fusions (Table S1)
Format in all cases: binding

Assay [1] addresses full-length kinase/Nluc fusion proteins (Homo sapiens, UniProt Q92630). The conditions noted are these: DYRK2, Nluc C; read-out: Probe EC50.
The target of assay [2] is full-length kinase/Nluc fusion proteins (Homo sapiens, UniProt Q96L34). The conditions noted are these: MARK4, Nluc N; read-out: Probe EC50.
For assay [3], the target named is full-length kinase/Nluc fusion proteins (Homo sapiens, UniProt O75385). The conditions noted are these: ULK1 (NP_003556), Nluc orientation N; read-out: Probe EC50.
Assay [4] concerns the target full-length kinase/Nluc fusion proteins (Homo sapiens, UniProt Q8WU08). The note with it: STK32A (NP_001106195), Nluc orientation N; read-out: Probe EC50.
Assay [5] deals with full-length kinase/Nluc fusion proteins (Homo sapiens, UniProt Q9UF33). The note with it: EPHA6, Nluc C; read-out: Probe EC50.
The target of assay [6] is full-length kinase/Nluc fusion proteins (Homo sapiens, UniProt P08581). The conditions noted are these: MET, Nluc C; read-out: Probe EC50.
The target of assay [7] is full-length kinase/Nluc fusion proteins (Homo sapiens, UniProt Q12852). The conditions noted are these: MAP3K12, Nluc N; read-out: Probe EC50.
Assay [8] addresses full-length kinase/Nluc fusion proteins (Homo sapiens, UniProt P36896). The conditions noted are these: ACVR1B, Nluc C; read-out: Probe EC50.
The target in assay [9] is full-length kinase/Nluc fusion proteins (Homo sapiens, UniProt Q9Y6R4). The note with it: MAP3K4, Nluc C; read-out: Probe EC50.
Assay [10] has as its target full-length kinase/Nluc fusion proteins (Homo sapiens, UniProt O60674). The note with it: JAK2, Nluc C; read-out: Probe EC50.
Assay [11] concerns the target full-length kinase/Nluc fusion proteins (Homo sapiens, UniProt P22607). The note with it: FGFR3, Nluc C; read-out: Probe EC50.
For assay [12], the target named is full-length kinase/Nluc fusion proteins (Homo sapiens, UniProt Q96GD4). The conditions noted are these: AURKB, Nluc C; read-out: Probe EC50.
Assay [13] has as its target full-length kinase/Nluc fusion proteins (Homo sapiens, UniProt O75460). The conditions noted are these: ERN1, Nluc C; read-out: Probe EC50.
Assay [14] has as its target full-length kinase/Nluc fusion proteins (Homo sapiens, UniProt Q12851). The conditions noted are these: MAP4K2, Nluc N; read-out: Probe EC50.
The target of assay [15] is full-length kinase/Nluc fusion proteins (Homo sapiens, UniProt Q9BYT3). The conditions noted are these: STK33 (NP_001275990), Nluc orientation N; read-out: Probe EC50.
For assay [16], the target named is full-length kinase/Nluc fusion proteins (Homo sapiens, UniProt Q5S007). The note with it: LRRK2, Nluc C; read-out: Probe EC50.
The target of assay [17] is full-length kinase/Nluc fusion proteins (Homo sapiens, UniProt P22455). The note with it: FGFR4, Nluc C; read-out: Probe EC50.
In assay [18] the target is full-length kinase/Nluc fusion proteins (Homo sapiens, UniProt Q14289). The note with it: PTK2B, Nluc C; read-out: Probe EC50.
The target of assay [19] is full-length kinase/Nluc fusion proteins (Homo sapiens, UniProt P31749). The note with it: AKT1, Nluc C; read-out: Probe EC50.
For assay [20], the target named is full-length kinase/Nluc fusion proteins (Homo sapiens, UniProt P35590). The conditions noted are these: TIE1 (NP_005415), Nluc orientation C; read-out: Probe EC50.
In assay [21] the target is full-length kinase/Nluc fusion proteins (Homo sapiens, UniProt P51956). The conditions noted are these: NEK3, Nluc N; read-out: Probe EC50.
In assay [22] the target is full-length kinase/Nluc fusion proteins (Homo sapiens, UniProt O00444). The note with it: PLK4, Nluc N; read-out: Probe EC50.
Assay [23] concerns the target full-length kinase/Nluc fusion proteins (Homo sapiens, UniProt Q9UQB9). The conditions noted are these: AURKC, Nluc C; read-out: Probe EC50.
Assay [24] deals with full-length kinase/Nluc fusion proteins (Homo sapiens, UniProt Q08881). The note with it: ITK, Nluc N; read-out: Probe EC50.
Assay [25] deals with full-length kinase/Nluc fusion proteins (Homo sapiens, UniProt Q02156). The conditions noted are these: PRKCE, Nluc C; read-out: Probe EC50.
The target of assay [26] is full-length kinase/Nluc fusion proteins (Homo sapiens, UniProt Q02779). The conditions noted are these: MAP3K10, Nluc N; read-out: Probe EC50.
Assay [27] deals with full-length kinase/Nluc fusion proteins (Homo sapiens, UniProt Q16659). The conditions noted are these: MAPK6, Nluc N; read-out: Probe EC50.
Assay [28] deals with full-length kinase/Nluc fusion proteins (Homo sapiens, UniProt Q9Y2K2). The conditions noted are these: SIK3 (NP_079440), Nluc orientation N; read-out: Probe EC50.
Assay [29] addresses full-length kinase/Nluc fusion proteins (Homo sapiens, UniProt P00519). The note with it: ABL1, Nluc N; read-out: Probe EC50.
Assay [30] deals with full-length kinase/Nluc fusion proteins (Homo sapiens, UniProt O43353). The note with it: RIPK2 (NP_003812), Nluc orientation N; read-out: Probe EC50.
Assay [31] concerns the target full-length kinase/Nluc fusion proteins (Homo sapiens, UniProt P09619). The note with it: PDGFRB, Nluc C; read-out: Probe EC50.
For assay [32], the target named is full-length kinase/Nluc fusion proteins (Homo sapiens, UniProt P51451). The conditions noted are these: BLK, Nluc N; read-out: Probe EC50.

Sequence of full-length kinase/Nluc fusion proteins (Homo sapiens, UniProt Q9Y6R4) (Q9Y6R4 whole entry, the tested form may be a part): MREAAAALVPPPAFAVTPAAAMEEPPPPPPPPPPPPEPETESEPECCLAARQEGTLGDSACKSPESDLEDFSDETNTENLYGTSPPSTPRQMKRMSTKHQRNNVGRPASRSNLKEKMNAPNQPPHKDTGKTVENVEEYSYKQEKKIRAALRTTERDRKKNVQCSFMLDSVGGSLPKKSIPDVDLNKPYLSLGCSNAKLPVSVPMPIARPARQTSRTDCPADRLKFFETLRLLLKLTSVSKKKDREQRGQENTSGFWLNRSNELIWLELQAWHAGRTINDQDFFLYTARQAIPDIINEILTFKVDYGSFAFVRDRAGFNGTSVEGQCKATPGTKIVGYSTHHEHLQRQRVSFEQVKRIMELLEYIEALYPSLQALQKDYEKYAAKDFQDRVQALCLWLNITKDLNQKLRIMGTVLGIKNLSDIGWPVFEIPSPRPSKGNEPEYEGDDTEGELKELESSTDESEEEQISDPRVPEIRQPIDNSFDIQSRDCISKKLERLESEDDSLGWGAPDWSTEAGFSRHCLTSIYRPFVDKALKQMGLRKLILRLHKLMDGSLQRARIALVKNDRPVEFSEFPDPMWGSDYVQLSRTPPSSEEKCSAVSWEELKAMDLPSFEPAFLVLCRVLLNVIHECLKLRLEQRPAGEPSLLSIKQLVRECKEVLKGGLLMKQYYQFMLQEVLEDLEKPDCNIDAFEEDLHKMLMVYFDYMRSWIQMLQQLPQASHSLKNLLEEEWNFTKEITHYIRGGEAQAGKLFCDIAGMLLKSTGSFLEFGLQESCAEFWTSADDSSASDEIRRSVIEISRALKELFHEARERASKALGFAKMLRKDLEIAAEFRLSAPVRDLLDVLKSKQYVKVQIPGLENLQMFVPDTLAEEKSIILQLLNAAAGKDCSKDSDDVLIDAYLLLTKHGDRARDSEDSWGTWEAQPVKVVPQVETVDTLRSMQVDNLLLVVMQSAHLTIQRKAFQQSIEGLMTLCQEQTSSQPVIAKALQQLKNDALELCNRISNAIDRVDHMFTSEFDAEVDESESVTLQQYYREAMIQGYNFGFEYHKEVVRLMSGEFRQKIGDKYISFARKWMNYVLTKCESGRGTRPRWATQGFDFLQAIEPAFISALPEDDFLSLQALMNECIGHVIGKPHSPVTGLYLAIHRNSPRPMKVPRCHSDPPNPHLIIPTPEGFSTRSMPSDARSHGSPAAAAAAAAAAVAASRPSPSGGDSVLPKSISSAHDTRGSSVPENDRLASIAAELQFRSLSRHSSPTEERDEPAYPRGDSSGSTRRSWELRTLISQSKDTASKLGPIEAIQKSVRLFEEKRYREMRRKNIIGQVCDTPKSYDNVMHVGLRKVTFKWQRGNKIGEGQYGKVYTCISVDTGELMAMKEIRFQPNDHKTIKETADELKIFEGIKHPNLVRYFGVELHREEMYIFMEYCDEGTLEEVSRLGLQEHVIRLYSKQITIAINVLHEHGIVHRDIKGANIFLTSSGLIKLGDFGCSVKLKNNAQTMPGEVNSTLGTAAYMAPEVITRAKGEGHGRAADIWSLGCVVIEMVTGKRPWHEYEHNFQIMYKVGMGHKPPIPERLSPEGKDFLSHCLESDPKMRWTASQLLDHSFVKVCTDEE
Sequence of full-length kinase/Nluc fusion proteins (Homo sapiens, UniProt O75460) (O75460 19-977): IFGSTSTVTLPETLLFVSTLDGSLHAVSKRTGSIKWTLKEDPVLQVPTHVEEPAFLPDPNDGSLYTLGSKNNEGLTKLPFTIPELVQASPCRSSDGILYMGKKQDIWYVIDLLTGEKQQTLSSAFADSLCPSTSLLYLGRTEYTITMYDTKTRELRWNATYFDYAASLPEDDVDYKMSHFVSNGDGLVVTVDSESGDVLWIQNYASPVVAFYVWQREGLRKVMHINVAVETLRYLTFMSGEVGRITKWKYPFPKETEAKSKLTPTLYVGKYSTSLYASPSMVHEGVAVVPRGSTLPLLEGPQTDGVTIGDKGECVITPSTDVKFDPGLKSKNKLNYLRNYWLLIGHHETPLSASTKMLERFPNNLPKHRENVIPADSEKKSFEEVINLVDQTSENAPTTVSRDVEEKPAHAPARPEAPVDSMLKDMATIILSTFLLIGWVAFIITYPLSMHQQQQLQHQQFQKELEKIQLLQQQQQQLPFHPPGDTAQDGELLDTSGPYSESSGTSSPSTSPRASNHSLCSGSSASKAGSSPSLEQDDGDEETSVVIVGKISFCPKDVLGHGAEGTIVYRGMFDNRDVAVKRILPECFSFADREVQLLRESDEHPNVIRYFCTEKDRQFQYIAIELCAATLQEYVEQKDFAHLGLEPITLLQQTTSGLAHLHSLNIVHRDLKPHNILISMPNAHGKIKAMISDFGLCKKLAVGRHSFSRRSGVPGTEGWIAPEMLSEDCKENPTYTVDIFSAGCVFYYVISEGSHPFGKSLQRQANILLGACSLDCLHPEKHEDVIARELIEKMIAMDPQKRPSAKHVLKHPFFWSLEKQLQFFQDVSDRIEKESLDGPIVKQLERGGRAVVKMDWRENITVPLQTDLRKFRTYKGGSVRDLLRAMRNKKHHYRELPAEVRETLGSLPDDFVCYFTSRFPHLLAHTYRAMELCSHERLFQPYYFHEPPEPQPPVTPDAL
Sequence of full-length kinase/Nluc fusion proteins (Homo sapiens, UniProt Q9UF33) (Q9UF33 23-1036): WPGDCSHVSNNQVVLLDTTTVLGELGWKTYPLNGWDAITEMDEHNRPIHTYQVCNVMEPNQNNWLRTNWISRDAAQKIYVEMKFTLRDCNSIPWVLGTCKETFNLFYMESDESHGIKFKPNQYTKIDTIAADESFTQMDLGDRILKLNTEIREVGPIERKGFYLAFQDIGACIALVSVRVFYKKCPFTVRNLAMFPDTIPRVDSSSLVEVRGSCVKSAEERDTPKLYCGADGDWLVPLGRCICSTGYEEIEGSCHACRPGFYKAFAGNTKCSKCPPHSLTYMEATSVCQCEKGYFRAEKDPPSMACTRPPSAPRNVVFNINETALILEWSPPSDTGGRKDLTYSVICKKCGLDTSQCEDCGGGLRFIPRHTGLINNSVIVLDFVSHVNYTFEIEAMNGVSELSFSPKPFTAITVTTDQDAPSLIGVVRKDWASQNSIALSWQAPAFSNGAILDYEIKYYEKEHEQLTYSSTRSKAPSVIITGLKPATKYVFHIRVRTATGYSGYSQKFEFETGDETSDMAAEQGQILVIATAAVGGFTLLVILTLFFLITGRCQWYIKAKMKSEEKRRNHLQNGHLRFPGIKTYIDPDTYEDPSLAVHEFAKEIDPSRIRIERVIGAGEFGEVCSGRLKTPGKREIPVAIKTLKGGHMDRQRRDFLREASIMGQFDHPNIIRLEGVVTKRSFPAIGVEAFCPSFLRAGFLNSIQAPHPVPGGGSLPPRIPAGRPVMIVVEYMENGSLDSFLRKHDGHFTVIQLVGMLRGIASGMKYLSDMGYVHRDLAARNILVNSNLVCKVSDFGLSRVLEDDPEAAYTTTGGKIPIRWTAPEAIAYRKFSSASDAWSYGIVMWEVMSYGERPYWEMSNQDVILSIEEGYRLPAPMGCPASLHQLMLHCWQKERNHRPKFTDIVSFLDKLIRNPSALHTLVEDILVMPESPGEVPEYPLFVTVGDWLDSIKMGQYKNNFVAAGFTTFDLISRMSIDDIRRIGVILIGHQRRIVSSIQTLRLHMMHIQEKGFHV
Sequence of full-length kinase/Nluc fusion proteins (Homo sapiens, UniProt O00444) (O00444 whole entry, the tested form may be a part): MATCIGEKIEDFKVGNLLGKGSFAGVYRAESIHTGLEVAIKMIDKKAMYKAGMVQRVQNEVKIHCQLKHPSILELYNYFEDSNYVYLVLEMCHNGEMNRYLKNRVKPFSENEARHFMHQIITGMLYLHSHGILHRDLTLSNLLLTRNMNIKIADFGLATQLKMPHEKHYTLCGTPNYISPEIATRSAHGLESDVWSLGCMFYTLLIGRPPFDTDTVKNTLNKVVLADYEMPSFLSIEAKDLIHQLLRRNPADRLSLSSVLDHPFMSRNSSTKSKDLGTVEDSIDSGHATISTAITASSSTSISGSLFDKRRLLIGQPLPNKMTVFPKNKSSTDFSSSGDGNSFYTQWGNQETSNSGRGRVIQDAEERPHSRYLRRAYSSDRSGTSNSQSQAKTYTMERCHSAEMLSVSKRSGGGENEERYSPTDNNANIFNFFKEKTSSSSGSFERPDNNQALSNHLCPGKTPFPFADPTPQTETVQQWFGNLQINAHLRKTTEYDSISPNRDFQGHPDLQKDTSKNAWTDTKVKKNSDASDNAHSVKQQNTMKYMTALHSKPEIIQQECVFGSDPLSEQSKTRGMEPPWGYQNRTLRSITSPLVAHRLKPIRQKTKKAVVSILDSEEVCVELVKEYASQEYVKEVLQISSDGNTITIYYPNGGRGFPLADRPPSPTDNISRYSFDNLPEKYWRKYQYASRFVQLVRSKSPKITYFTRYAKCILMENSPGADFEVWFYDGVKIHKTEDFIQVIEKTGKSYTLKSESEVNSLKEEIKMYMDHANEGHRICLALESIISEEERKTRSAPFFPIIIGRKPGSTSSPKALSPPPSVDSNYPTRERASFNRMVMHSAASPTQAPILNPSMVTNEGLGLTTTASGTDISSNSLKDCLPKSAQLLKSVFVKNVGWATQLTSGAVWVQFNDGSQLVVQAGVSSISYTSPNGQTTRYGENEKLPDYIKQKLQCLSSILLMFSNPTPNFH
Sequence of full-length kinase/Nluc fusion proteins (Homo sapiens, UniProt O43353) (O43353 whole entry, the tested form may be a part): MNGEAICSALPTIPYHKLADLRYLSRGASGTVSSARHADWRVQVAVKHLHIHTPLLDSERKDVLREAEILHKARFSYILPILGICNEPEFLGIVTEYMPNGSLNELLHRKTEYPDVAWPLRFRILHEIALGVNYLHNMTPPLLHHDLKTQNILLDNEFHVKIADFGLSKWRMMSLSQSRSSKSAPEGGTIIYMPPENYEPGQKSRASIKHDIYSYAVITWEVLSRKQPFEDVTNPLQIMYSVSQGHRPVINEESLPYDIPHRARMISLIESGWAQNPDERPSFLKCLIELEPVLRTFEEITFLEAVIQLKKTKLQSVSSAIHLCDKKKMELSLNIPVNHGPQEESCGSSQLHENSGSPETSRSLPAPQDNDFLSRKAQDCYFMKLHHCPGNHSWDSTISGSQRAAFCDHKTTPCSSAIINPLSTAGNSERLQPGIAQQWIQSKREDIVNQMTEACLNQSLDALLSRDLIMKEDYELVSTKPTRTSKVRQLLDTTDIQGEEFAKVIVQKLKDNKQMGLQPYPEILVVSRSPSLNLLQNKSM

For `CNC(=O)c1ccccc1Nc1nc(Nc2ccc(N3CCN(C(=O)CCOCCOCCOCCOCCNC(=O)CCc4ccc5n4[B-](F)(F)[N+]4=C(c6ccc[nH]6)C=CC4=C5)CC3)cc2)ncc1Cl` [Energy Transfer Probe 5, 2-((2-((4-(4-(1-amino-3,6,9,12-tetraoxapentadecan-15-oyl)piperazin-1-yl)phenyl)amino)-5-chloropyrimidin-4-yl)amino)-N-methylbenzamide-NanoBRET 590], the EC50 was greater than 1000 nM in assay [1]; greater than 1000 nM in assay [2]; greater than 1000 nM in assay [3]; greater than 1000 nM in assay [4]; greater than 1000 nM in assay [5]; 400 nM in [6]. Besides, the EC50 in assay [7] was greater than 1000 nM; in assay [8] it was greater than 1000 nM; in assay [9], greater than 1000 nM; in assay [10], greater than 1000 nM; in [11] it was 500 nM; in [12], 10 nM. For the same compound, the concentration giving a half-maximal response (EC50) in assay [13] was greater than 1000 nM; in assay [14], greater than 1000 nM; in [15] it was 400 nM; in assay [16] it was greater than 1000 nM; in assay [17] it was greater than 1000 nM; in [18] it was 300 nM. For the same compound, the 50% effective concentration (EC50) was greater than 1000 nM in assay [19]; 100 nM in [20]; greater than 1000 nM in assay [21]; 400 nM in assay [22]; 20 nM in [23]; 40 nM in [24]. Besides, the EC50 in assay [25] was greater than 1000 nM; in assay [26], greater than 1000 nM; in [27], 400 nM.

With `Cc1nc(Nc2ncc(C(=O)Nc3c(C)cccc3Cl)s2)cc(N2CCN(CCOCCNC(=O)CCc3ccc4n3[B-](F)(F)[N+]3=C(c5ccc[nH]5)C=CC3=C4)CC2)n1` [Energy Transfer Probe 6, 2-((6-(4-(2-(2-aminoethoxy)ethyl)piperazin-1-yl)-2-methylpyrimidin-4-yl)amino)-N-(2-chloro-6-methylphenyl)thiazole-5-carboxamide-NanoBRET 590], the EC50 is greater than 1000 nM in [28]; 200 nM in [29]; 200 nM in [30]; 200 nM in [31]; 300 nM in [32].

As usually defined, the EC50 is the concentration giving half of the maximal effect.
